Series [1] has as its system M21. Description: Antiproliferative activity against human M21 cells assessed as reduction in cell viability measured after 48 hrs by sulforhodamine B assay. Format: functional, cell-based. To be noted: M21, 48 h. (In SRB staining, fixed cells bind dye roughly in proportion to their protein.)
Series [2] concerns M21. Kind of series: Cell cycle arrest in human M21 cells assessed as accumulation at G2/M phase at 2 to 5 times IC50 measured after 24 hrs by DAPI staining based flow cytometry (reference value: 13.4%). Format: functional. On the technique in general: Flow cytometry measures light scatter and fluorescence of single cells or particles in a stream.
For another series, the system named is HT-1080. Kind of series: Antiproliferative activity against human HT-1080 cells assessed as reduction in cell viability measured after 48 hrs by sulforhodamine B assay. Format: functional, cell-based. To be noted: HT-1080, 48 h.
Series [3] in a line: Solubility of compound in DMSO at 15 uM. Format: physicochemical.
The subject of the next series is HT-29. Description: Antiproliferative activity against human HT-29 cells assessed as reduction in cell viability measured after 48 hrs by sulforhodamine B assay. Format: functional, cell-based. To be noted: HT-29, 48 h.
For a further series, the system named is MCF7. Description: Antiproliferative activity against human MCF7 cells assessed as reduction in cell viability measured after 48 hrs by sulforhodamine B assay. To be noted: MCF7, 48 h. The series is classed as functional, cell-based.
Series [4] can be described thus: Toxicity in chick embryo assessed as death at 1 ug, iv incubated for 7 days relative to control. The series is classed as organism-based. To be noted: in vivo, at 1 µg, time 7 day, read-out: Activity.
For series [5], the system named is M21. Description: Cell cycle arrest in human M21 cells assessed as accumulation at G0/G1 phase at 2 to 5 times IC50 measured after 24 hrs by DAPI staining based flow cytometry (reference value: 65.5%). The series is classed as functional.
For series [6], the species on record is Sus scrofa. Kind of series: Inhibition of porcine brain tubulin polymerization at 15 uM measured after 60 mins by fluorescence assay.
The target of series [7] is T1, Tubulin (Homo sapiens) (UniProt P68371+Q9H4B7+P0DPH7+P68366+Q13509+Q71U36+P04350+Q3ZCM7+P07437+P68363+Q9BQE3+Q6PEY2+Q13885+Q9BVA1+Q9BUF5). Kind of series: Disruption of microtubule polymerization in human M21 cells assessed as induction of mitotic abnormalities at 5 times IC50 measured after 24 hrs by DAPI staining based immunofluorescence microscopic analysis. The series is classed as cell-based.

In series [8] the target is Tubulin beta (Homo sapiens) (UniProt P68371+Q9H4B7+Q13509+P04350+Q3ZCM7+P07437+Q13885+Q9BVA1+Q9BUF5+A6NNZ2). Kind of series: Inhibition of EBI binding to colchicine-binding site of beta-tubulin in human M21 cells at 100 to 1000 times IC50 preincubated for 2 hrs followed by EBI addition and measured after 1.5 hrs by Western blot analysis. Format: cell-based. To be noted: time 3.5 hrs. For orientation: In western blotting, separated proteins are transferred to a membrane and probed.

Series [9] has as its system M21. Description: Cell cycle arrest in human M21 cells assessed as accumulation at S phase at 2 to 5 times IC50 measured after 24 hrs by DAPI staining based flow cytometry (reference value: 16.1%). The series is classed as functional.
The subject of series [10] is M21. Kind of series: Cell cycle arrest in human M21 cells assessed as accumulation at SubG1 phase at 2 to 5 times IC50 measured after 24 hrs by DAPI staining based flow cytometry (reference value: 5%). Format: functional.
Series [11] has as its target T1, Tubulin (Homo sapiens). Description: Disruption of microtubule polymerization in human M21 cells at 5 times IC50 measured after 24 hrs by DAPI staining based immunofluorescence microscopic analysis. Format: cell-based.
For series [12], the system named is M21. Description: Cell cycle arrest in human M21 cells assessed as accumulation at G2/M phase at 11 nM measured after 24 hrs by DAPI staining based flow cytometry (reference value: 13.4%). Format: functional.
The test system of series [13] is M21. Kind of series: Cell cycle arrest in human M21 cells assessed as accumulation at SubG1 phase at 11 nM measured after 24 hrs by DAPI staining based flow cytometry (reference value: 5%). Format: functional.
The subject of series [14] is M21. Kind of series: Cell cycle arrest in human M21 cells assessed as accumulation at S phase at 11 nM measured after 24 hrs by DAPI staining based flow cytometry (reference value: 16.1%). The series is classed as functional.
Series [15] concerns M21. Kind of series: Cell cycle arrest in human M21 cells assessed as accumulation at G0/G1 phase at 11 nM measured after 24 hrs by DAPI staining based flow cytometry (reference value: 65.5%). Format: functional.
The nature of series [16]: Solubility of compound in DMSO at 30 uM. Format: physicochemical.
For series [17], the species on record is Sus scrofa. Kind of series: Inhibition of porcine brain tubulin polymerization at 30 uM measured after 60 mins by fluorescence assay.
Series [18] in a line: Toxicity in chick embryo assessed as death at 20 ug, iv incubated for 7 days relative to control. The series is classed as organism-based. To be noted: in vivo, at 20 µg, time 7 day, read-out: Activity.

Activity calls are given as the source filed them. No cut-off for these calls is given here.

From ChEMBL document CHEMBL4732153, “Phenyl 4-(2-oxopyrrolidin-1-yl)benzenesulfonates and phenyl 4-(2-oxopyrrolidin-1-yl)benzenesulfonamides as new antimicrotubule agents targeting the colchicine-binding site” (Eur J Med Chem, 2021) come the findings set out here.

A word on the IC50: it is the concentration that inhibits the measured activity by half. `COc1cc(NS(=O)(=O)c2ccc(N3CCCC3=O)cc2)cc(OC)c1OC`: the IC50 in the series on M21 [1] was 56 nM; in the series on HT-1080, 130 nM; with HT-29 it was 80 nM; in the series on MCF7, 88 nM. Besides, the Activity amounted to 80.4% with M21 [2], 8.2% in the series on M21 [5], 7.5% in the series with M21 [9] and 3.9% in the series with M21 [10]. Besides, in [3], the solubility result is reported as “Soluble”. Also, the mortality at 168 h in [4] was 8%. The inhibition entry in the series filed under Sus scrofa [6] is “Active”. In addition, the result on Tubulin (Homo sapiens) [7] and on Tubulin (Homo sapiens) [11] was Active. Further, in series [8], the “Inhibition of EBI binding (active/inactive)” value (shortened to “Inhibition … (active/inactive)”) was “Active”.
Regarding `COc1ccc(/C=C\c2cc(OC)c(OC)c(OC)c2)cc1O` [COMBRETASTATIN A4], the IC50 in the series on M21 [1] turned out to be 2.2 nM; in the series on HT-1080, 2.2 nM; in the series with HT-29 it was 5.1 nM; in the series on MCF7, 1.9 nM. For the same compound, the Activity is on record as 79.5% in the series with M21 [12], 4.1% with M21 [13], 7.2% in the series with M21 [14] and 9.2% with M21 [15]. Besides, in the series filed under Sus scrofa [6], the inhibition entry is “Active”. Also, in series [8], the “Inhibition … (active/inactive)” value is “Active”.
As for `COc1cc(OC)cc(OS(=O)(=O)c2ccc(N3CCCC3=O)cc2)c1`, in series [16], the solubility entry is “Soluble”. In addition, the IC50 in the series with M21 [1] is 12 nM; in the series on HT-1080, 26 nM; with HT-29, 39 nM; in the series with MCF7, 21 nM. Also, the Activity in the series with M21 [2] is listed as 45.6%; in the series on M21 [5], 32.7%; with M21 [9], 9.6%; in the series on M21 [10], 12.1%. The inhibition result in the series filed under Sus scrofa [17] was “Active”. The outcome at Tubulin (Homo sapiens) [7] and at Tubulin (Homo sapiens) [11] was Active. In series [8], the “Inhibition … (active/inactive)” value is “Active”. Further, in [18], the mortality at 168 h worked out at 18%.
